Where a name gives a salt, the structure may show the parent alone.

The target in one assay is T1, KRAS_G12D and cRAF (Homo sapiens, UniProt P01116, G12D).
T1 construct: purchased
T1 sequence (P01116 1-188 isoform P01116-2 G12D): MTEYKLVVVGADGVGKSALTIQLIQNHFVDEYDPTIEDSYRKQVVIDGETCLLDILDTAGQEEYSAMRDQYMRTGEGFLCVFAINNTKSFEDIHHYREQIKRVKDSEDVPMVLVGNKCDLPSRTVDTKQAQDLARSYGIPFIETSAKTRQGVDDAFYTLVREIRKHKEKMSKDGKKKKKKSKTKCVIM
The assay can be described thus: Inhibition of KRAS_G12D/cRAF binding (Cisbio binding kit, 665/615 ratio), Effect Embodiment B. Conditions: read-out: GTP-KRAS-G12D:CRAF IC50. The procedure: Similarly, the first dilution point of the compound to be tested was its storage solution, and the solution was 3-fold diluted, with 11+0 points of dilution. Echo was used to transfer 0.2 μL gradient diluted solution of the compounds into a 384-well plate, with 2 duplicated wells for each compound, and the final concentration of DMSO was 1%. The solution was centrifuged for 1 min at 1000 rpm/min.
IC50 of the compounds was fitted by Graphpad Prism 8 nonlinear regression equation: […]
The IC50 (half inhibitory concentration) of the compound was obtained by using the following nonlinear fitting formula: […]
On to `CN(C)C1CN(c2nc(N3CCNCC3)c3cc(Cl)c(-c4cc(O)cc5ccccc45)c(F)c3n2)C1` (single isomer, unassigned) [Comparative embodiment a, reference compound], for which the IC50 came out at 7310 nM. With `CO[C@H](COc1nc(N2CC3CCC(C2)N3)c2cc(Cl)c(-c3cc(O)cc4ccccc34)c(F)c2n1)CN1C2CCC1COC2` (single isomer, unassigned) [Compound 184, (4R or S)-4-(2-((2S)-3-(3-oxa-8-azabicyclo[3.2.1]octan-8-yl)-2-methoxypropoxy)-4-((1R,5S)-3,8-diazabicyclo[3.2.1]octan-3-yl)-6-chloro-8-fluoroquinazolin-7-yl)naphthalen-2-ol diformate], the IC50 was determined as 461 nM. In the case of `Nc1cc(-c2c(Cl)cc3c(N4C[C@H]5CC[C@@H](C4)N5)nc(OCCCN4C5CCC4COC5)nc3c2F)c2ccccc2c1` (single isomer, unassigned) [Compound 192b, 4-((7S or 7R)-2-(3-(3-oxa-8-azabicyclo[3.2.1]octan-8-yl)propoxy)-4-((1R,5S)-3,8-diazabicyclo[3.2.1]octan-3-yl)-6-chloro-8-fluoroquinazolin-7-yl)naphthalen-2-amine tritrifluoroacetate], the IC50 stood at 431 nM.

With `CC(F)(COc1nc(N2CC3CCC(C2)N3)c2cc(Cl)c(-c3cc(O)cc4ccccc34)c(F)c2n1)CN1C2CCC1COC2` (single isomer, unassigned) [Compound 208a, ((4S or 4R)-4-(2-((2(R or S)-3-(3-oxa-8-azabicyclo[3.2.1]octan-8-yl)-2-fluoro-2-methylpropoxy)-4-((1R,5S)-3,8-diazabicyclo[3.2.1]octan-3-yl)-6-chloro-8-fluoroquinazolin-7-yl)naphthalen-2-ol formate], the IC50 is 109 nM.

For a further assay, the target named is T2, KRAS-G12D and SOS1 (Homo sapiens, UniProt P01116, G12D).
T2 construct: purchased
T2 sequence (P01116 1-188 isoform P01116-2 G12D): as above
Kind of assay: Inhibition of KRAS-G12D/SOS1 binding (Cisbio binding kit, 665/615 ratio), Effect Embodiment A. The settings on record: read-out: GTP-KRAS-G12D:SOS1 IC50. The method, boiled down: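 Duplicate wells received an eleven-point, threefold compound titration whose top point was the stock solution; final DMSO 1%.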
With `CN(C)C1CN(c2nc(N3CCNCC3)c3cc(Cl)c(-c4cc(O)cc5ccccc45)c(F)c3n2)C1` (single isomer, unassigned) [Comparative embodiment a, reference compound], the IC50 worked out at 1350 nM.

Turning to `CO[C@H](COc1nc(N2CC3CCC(C2)N3)c2cc(Cl)c(-c3cc(O)cc4ccccc34)c(F)c2n1)CN1C2CCC1COC2` (single isomer, unassigned) [Compound 184, (4R or S)-4-(2-((2S)-3-(3-oxa-8-azabicyclo[3.2.1]octan-8-yl)-2-methoxypropoxy)-4-((1R,5S)-3,8-diazabicyclo[3.2.1]octan-3-yl)-6-chloro-8-fluoroquinazolin-7-yl)naphthalen-2-ol diformate], the IC50 turned out to be 113 nM. On the same count and under the same terms, for `Nc1cc(-c2c(Cl)cc3c(N4C[C@H]5CC[C@@H](C4)N5)nc(OCCCN4C5CCC4COC5)nc3c2F)c2ccccc2c1` (single isomer, unassigned) [Compound 192b, 4-((7S or 7R)-2-(3-(3-oxa-8-azabicyclo[3.2.1]octan-8-yl)propoxy)-4-((1R,5S)-3,8-diazabicyclo[3.2.1]octan-3-yl)-6-chloro-8-fluoroquinazolin-7-yl)naphthalen-2-amine tritrifluoroacetate] the value was 186 nM. For `CC(F)(COc1nc(N2CC3CCC(C2)N3)c2cc(Cl)c(-c3cc(O)cc4ccccc34)c(F)c2n1)CN1C2CCC1COC2` (single isomer, unassigned) [Compound 208a, ((4S or 4R)-4-(2-((2(R or S)-3-(3-oxa-8-azabicyclo[3.2.1]octan-8-yl)-2-fluoro-2-methylpropoxy)-4-((1R,5S)-3,8-diazabicyclo[3.2.1]octan-3-yl)-6-chloro-8-fluoroquinazolin-7-yl)naphthalen-2-ol formate], the IC50 stood at 42.5 nM. As for `C#Cc1c(F)ccc2cccc(-c3c(F)cc4c(N5CC6CCC(C5)N6)nc(OC[C@@]56CCCN5C[C@H](F)C6)nc4c3F)c12` (single isomer, unassigned) [Compound 279b, (R or S)-4-((1R,5S)-3,8-diazacyclo[3.2.1]octyl-3-yl)-7-(8-ethynyl-7-fluoronaphthalen-1-yl)-6,8-difluoro-2-((2R,7aS)-2-fluorotetrahydro-1H-pyrrolidin-7a(5H)-yl)methoxy)quinazoline formate], the IC50 is 1390 nM.

Consider `CCc1c(F)ccc2cccc(-c3c(F)cc4c(N5CC6CCC(C5)N6)nc(OC[C@@]56CCCN5C[C@H](F)C6)nc4c3F)c12` (single isomer, unassigned) [Compound 280b, 4-((1R,5S)-3,8-diazacyclo[3.2.1]octan-3-yl)-7-((R or S)-8-ethyl-7-fluoronaphthalen-1-yl)-6,8-difluoro-2-((2R,7aS)-2-fluorotetrahydro-1H-pyrrolidin-7a(5H)-yl)methoxy)quinazoline dihydrochloride], for which the IC50 was determined as 310 nM. As to `CCc1cccc2cccc(-c3c(F)cc4c(N5CC6CCC(C5)N6)nc(OC[C@@]56CCCN5C[C@H](F)C6)nc4c3F)c12` (single isomer, unassigned) [Compound 281b, (R or S)-4-((1R,5S)-3,8-diazacyclo[3.2.1]octan-3-yl)-7-(8-ethylnaphthalen-1-yl)-6,8-difluoro-2-((2R,7aS)-2-fluorotetrahydro-1H-pyrrolin-7a(5H)-yl)methoxy)quinazoline dihydrochloride], the IC50 was 449 nM. Still for that read-out and setting: for `CCc1cccc2cc(O)cc(-c3c(F)cc4c(N5CC6CCC(C5)N6)nc(OCCCN5CCOC[C@H]5C)nc4c3F)c12` (single isomer, unassigned) [Compound 282b, (R or S)-4-(4-((1R,5S)-3,8-diazacyclo[3.2.1]octan-3-yl)-6,8-difluoro-2-(3-((R)-3-methylmorpholinyl)propoxy)quinazolin-7-yl)-5-ethylnaphthalen-2-ol dihydrochloride] the value was 5070 nM; for `CCc1cccc2cc(O)cc(-c3c(F)cc4c(N5CC6CCC(C5)N6)nc(OCCCN5C[C@@H](C)O[C@@H](C)C5)nc4c3F)c12` (single isomer, unassigned) [Compound 283b, (R or S)-4-(4-((1R,5S)-3,8-diazacyclo[3.2.1]octan-3-yl)-2-(3-((2S,6R)-2,6-dimethylmorpholinyl)propoxy)-6,8-difluoroquinazolin-7-yl)-5-ethylnaphthalen-2-ol dihydrochloride], 9180 nM.

As to `CCc1cccc2cc(O)cc(-c3c(F)cc4c(N5CC6CCC(C5)N6)nc(OC[C@H](C)CN5C6CCC5COC6)nc4c3F)c12` (single isomer, unassigned) [Compound 284b, (4R or 4S)-4-(2-((2R)-3-(3-oxa-8-azabicyclo[3.2.1]octan-8-yl)-2-methylpropoxy)-4-((1R,5S)-3,8-diazabicyclo[3.2.1]octan-3-yl)-6,8-difluoroquinazolin-7-yl)-5-ethylnaphthalen-2-o1 dihydrochloride], the IC50 was 2010 nM. With `CCc1cccc2cc(O)cc(-c3c(F)cc4c(N5CC6CCC(C5)N6)nc(OC[C@@]56CCCN5C[C@H](F)C6)nc4c3F)c12` (single isomer, unassigned) [Compound 285b, (R or S)-4-(4-((1R,5S)-3,8-diazacyclo[3.2.1]octan-3-yl)-6,8-difluoro-2-((2R,7aS)-2-fluorotetrahydro-1H-pyrrolidin-7a(5H-yl)methoxy)quinazolin-7-yl)-5-ethylnaphthalen-2-ol dihydrochloride], the IC50 was found to be 1460 nM. For `CN(C)C1CN(c2nc(C3CCNCC3)c3cc(Cl)c(-c4cc(O)cc5ccccc45)c(F)c3n2)C1` [Compound 20a, (R or S)-4-(6-chloro-2-(3-(dimethylamino)azetidin-1l-yl)-8-fluoro-4-(piperidin-4-yl)quninazolin-7-yl)naphthalen-2-ol], the IC50 was 4800 nM. On the same count and under the same terms, for `CN(C)CCCOc1nc2c(c(N3CCNCC3)n1)CCN(c1cc(O)cc3ccccc13)C2` [Compound 73, 4-(2-(3-(Dimethylamino)propoxy)-4-(piperazin-1-yl)-5,8-dihydropyrido[3,4-d]pyrimidin-7(6H)-yl)naphthalen-2-ol] the value was 15700 nM; for `CN(C)C1CN(c2nc(N3CC(C(=N)N)C3)c3cc(Cl)c(-c4cc(O)cc5ccccc45)c(F)c3n2)C1` [Compound 77, (S)-1-(6-chloro-2-(3-(dimethylamino)azetidin-1-yl)-8-fluoro-7-(3-hydroxynaphthalen-1-yl)quinazolin-4-yl)azetidine-3-carboximidamide], 1040 nM; for `Oc1cc(-c2ncc3c(N4C[C@H]5CC[C@@H](C4)N5)nc(Oc4ccncc4)nc3c2F)c2ccccc2c1` [Compound 130, 4-(4-((1R,5S)-3,8-diazabicyclo[3.2.1]octan-3-yl)-8-fluoro-2-(pyridinyl-4-oxy)pyridyl[4,3-d]pyrimidin-7-yl)naphthalen-2-ol hydrochloride], 842 nM. On to `Cn1ccnc1COc1nc(N2C[C@H]3CC[C@@H](C2)N3)c2cnc(-c3cc(O)cc4ccccc34)c(F)c2n1` [Compound 132, 4-(4-((1R,5S)-3,8-diazabicyclo[3.2.1]octan-3-yl)-8-fluoro-2-((1-methyl-1H-imidazol-2-yl)methoxy)pyridinyl[4,3-d]pyrimidin-7-yl)naphthalen-2-ol trifluoroacetate], for which the concentration for half-maximal inhibition (IC50) worked out at 762 nM. For `CN1CC(F)(F)C[C@H]1COc1nc(N2CC3CCC(C2)N3)c2cnc(-c3cc(O)cc4ccccc34)c(F)c2n1` [Compound 135, 4-(4-((1R,5S)-3,8-diazabicyclo[3.2.1]octan-3-yl)-2-((S)-4,4-difluoro-1-methylpyrrolidin-2-yl)methoxy)-8-fluoropyridinyl[4,3-d]pyrimidin-7-yl)naphthalen-2-ol formate], the IC50 turned out to be 133 nM.

Take `Oc1cc(-c2ncc3c(N4C[C@H]5CC[C@@H](C4)N5)nc(OCCc4ccccn4)nc3c2F)c2ccccc2c1` [Compound 138, 4-(4-((1R,5S)-3,8-diazabicyclo[3.2.1]octan-3-yl)-8-fluoro-2-(2-(pyridin-2-yl)ethoxy)pyridyl[4,3-d]pyrimidin-7-yl)naphthalen-2-ol trifluoroacetate]: the IC50 was 108 nM.

Regarding `CN1C[C@H]2C[C@H]2[C@H]1COc1nc(N2CC3CCC(C2)N3)c2cnc(-c3cc(O)cc4ccccc34)c(F)c2n1` [Compound 141, 4-(4-((1R,5S)-3,8-diazabicyclo[3.2.1]octan-3-yl)-8-fluoro-2-((1R,2S,5R)-3-methyl-3-azabicyclo[3.1.0]hexan-2-yl)methoxy)pyridin[4,3-d]pyrimidin-7-yl)naphthalen-2-ol dihydrochloride], the IC50 came out at 87.6 nM. For `CN1CCC[C@H]1COc1nc(N2CC3NC(C2)C2CC32)c2cnc(-c3cc(O)cc4ccccc34)c(F)c2n1` (stereo partly drawn) [Compound 158, 4-(8-Fluoro-2-((S)-1-methylpyrrolidin-2-yl)methoxy)-4-((1R,2R,4S,5S)-7,9-diazatricyclo[3.3.1.0^2,4]nonan-7-yl)pyridinyl[4,3-d]pyrimidin-7-yl)naphthalen-2-ol diformate], the IC50 is 199 nM. With `CN(C)CCCOc1nc(N2C[C@H]3CC[C@@H](C2)N3)c2ccn(-c3cc(O)cc4ccccc34)c(=O)c2n1` [Compound 161, 4-((1R,5S)-3,8-diazabicyclo[3.2.1]octan-3-yl)-2-(3-(dimethylamino)propoxy)-7-(3-hydroxynaphthalen-1-yl)pyrido[3,4-d]pyrimidin-8(7H)-one dihydrochloride], the IC50 was greater than 10000 nM.

As a reminder, the IC50 is the concentration at which inhibition is half-maximal.

Source of the values: US20230365563A1, “QUINAZOLINE COMPOUND AND APPLICATION THEREOF” (SHANGHAI PHARMACEUTICALS HOLDING CO., LTD., priority 2020, published 2023).
